Where “and” joins values, the source holds several entries; their conditions need not be identical. Equal entries are not always repeated.
Tests used:
PDE4 = assay: Inhibition of PDE4, radioenzymatic phosphodiesterase assay; assay type: biochemical, bovine
In short: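 PDE4 partially purified from bovine aortic media by 105,000 g centrifugation and anion-exchange chromatography with an NaCl gradient. Activity measured radioenzymatically: product nucleoside separated from nucleotides by anion exchange and counted by liquid scintillation.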

PDE1 = assay: Selectivity: inhibition of PDE1, radioenzymatic phosphodiesterase assay; assay type: biochemical, bovine; set-up: PDE1 percentage inhibition at 10 μM: unit: %; conditions: Table 4 Selectivity; compound at 10 μM
Experimental: (§1) A 3 g segment of bovine aortic media cut into pieces with scissors was homogenized with an ultra-turrax then a potter glass/glass homogenizer in 7 volumes by weight of buffer A containing a protease inhibitor cocktail (20 mM Tris-HCl, 0.25 M saccharose, 2 mM magnesium acetate, 1 mM dithiothreitol, 5 mM EGTA, 2000 U/ml aprotinin, 10 mg/l leupeptin and 10 mg/l soya trypsic inhibitor). The homogenizate was centrifuged at 105,000 g for 1 hour. The supernatant was loaded on a DEAE-Sephacel column (15×1.6 cm) pre-equilibrated with buffer B (buffer A without the saccharose, EGTA and protease inhibitors). The column was washed until there was no detectable absorption at 280 nm, then eluted with a linear gradient of NaCl (0–0.5 M) in buffer B. 3-ml fractions were collected and enzyme activity was determined under the conditions described hereinafter to localize the different enzymes PDE1, PDE3, PDE4 and PDE5, which were aliquoted and frozen at −80° C. (Lugnier et al., Biochem. Phamacol., 35 (1986) 1746–1751). PDE2 was prepared from bovine endothelial cells by the same methods (Lugnier and Schini, Biochem. Pharmacol. 1990, 39; 75–84).
(§2) Cyclic nucleotide phosphodiesterase activity was determined by a radioenzymatic method using tritium-labelled cyclic GMP or AMP (1 μM) as substrate (Lugnier et al., 1986). ^3H-labelled adenosine or guanosine monophosphate formed by hydrolysis of the radiolabelled cyclic nucleotide was then converted to ^3H-labelled adenosine or guanosine in a second reaction with […] in excess. The nucleoside formed was separated from the nucleotides by anion exchange chromatography. Nucleoside radioactivity was determined by liquid scintillation counting. Enzymatic incubations were carried out under conditions allowing no more than 15% hydrolysis of the substrate; each point was performed in duplicate.
(§3) The activity of the compounds was evaluated on other phosphodiesterase isoforms, particularly basal state or calmodulin-activated PDE1 from vascular smooth muscle, basal state or cyclic GMP-activated PDE2 from vascular endothelial cells, PDE3 and PDE5 from vascular smooth muscle.
(§4) The results obtained are presented in Table 4 hereinafter and are expressed as the percentage inhibition of enzymatic activity produced by […] of the tested compound.

PDE2 = target: T1, PDE2 (Bos taurus, UniProt P14099); assay: Selectivity: inhibition of PDE2, radioenzymatic phosphodiesterase assay; assay type: biochemical, bovine; conditions: Table 4 Selectivity; compound at 10 μM; read-out: PDE2 percentage inhibition at 10 μM
T1 construct: PDE2 was prepared from bovine endothelial cells by the same methods; endogenous in cells; host or cells: bovine vascular endothelial cells, DEAE-Sephacel fraction
T1 sequence (P14099 1-921): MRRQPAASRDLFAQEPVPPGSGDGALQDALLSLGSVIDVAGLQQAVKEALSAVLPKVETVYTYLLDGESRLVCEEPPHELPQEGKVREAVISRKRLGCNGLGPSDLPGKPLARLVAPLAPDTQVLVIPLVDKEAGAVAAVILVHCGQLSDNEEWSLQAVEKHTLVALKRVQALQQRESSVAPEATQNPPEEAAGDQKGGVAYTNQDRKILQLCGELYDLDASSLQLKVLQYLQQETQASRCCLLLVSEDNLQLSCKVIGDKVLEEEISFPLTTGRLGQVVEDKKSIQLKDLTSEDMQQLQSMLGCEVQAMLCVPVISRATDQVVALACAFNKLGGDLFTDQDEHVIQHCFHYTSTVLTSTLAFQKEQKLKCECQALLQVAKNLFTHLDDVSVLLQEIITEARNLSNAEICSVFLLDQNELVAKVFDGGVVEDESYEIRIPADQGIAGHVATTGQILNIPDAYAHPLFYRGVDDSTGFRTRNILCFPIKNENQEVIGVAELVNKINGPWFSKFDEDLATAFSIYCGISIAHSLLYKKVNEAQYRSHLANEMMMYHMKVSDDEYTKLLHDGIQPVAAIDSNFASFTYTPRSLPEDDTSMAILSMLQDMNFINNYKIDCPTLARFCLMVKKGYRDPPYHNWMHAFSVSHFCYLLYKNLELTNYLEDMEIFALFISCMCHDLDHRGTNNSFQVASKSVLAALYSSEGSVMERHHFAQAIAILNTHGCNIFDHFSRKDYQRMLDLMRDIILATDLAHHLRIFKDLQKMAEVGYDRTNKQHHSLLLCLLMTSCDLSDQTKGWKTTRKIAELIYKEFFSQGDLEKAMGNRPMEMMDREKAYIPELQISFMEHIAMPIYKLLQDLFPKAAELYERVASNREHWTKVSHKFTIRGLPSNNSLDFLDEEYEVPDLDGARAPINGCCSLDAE
Experimental: as §1, §2, §3, §4

PDE5 = target: T2, PDE5 (Bos taurus, UniProt Q28156); assay: Selectivity: inhibition of PDE5, radioenzymatic phosphodiesterase assay; assay type: biochemical, bovine; conditions: Table 4 Selectivity; compound at 10 μM; read-out: PDE5 percentage inhibition at 10 μM
T2 construct: localize the different enzymes PDE1, PDE3, PDE4 and PDE5, which were aliquoted and frozen; from tissue; host or cells: bovine aortic media (vascular smooth muscle), DEAE-Sephacel fraction
Experimental: as §1, §2, §3, §4

TNFα = TNFα production by LPS-activated mononuclear cells from venous blood (ELISA); assay type: cell-based; conditions: Homo sapiens
Experimental: Compounds according to the invention were assessed for anti-inflammatory properties on mononuclear cells from venous blood of healthy donors (n=4), by a protocol approved by the Alsace No. 1 Ethics Committee. More specifically, the cells were incubated for 24 hours in 24-well plates in the presence of the test compound, after activation by Salmonella Abortis Equi lipopolysaccharide (LPS) (5 pg/ml) (cf. De Groote et al., Cytokine 4, 1992, 239). After incubation, TNFα concentrations were determined in the culture supernatant by an ELISA method (Antibody Solutions, Half Moon Bay, Calif., USA).

IL1β, IL6 and IL8 = IL1β, IL6 and IL8 secretion by LPS-activated mononuclear cells from venous blood; assay type: cell-based, human

| SMILES | IC50 (PDE4; Table 3, formula (II), 1 μM cyclic AMP) | IC50 (PDE4; Table 4 Selectivity) | PDE1 percentage inhibition at 10 μM (PDE1) | inhibition at 10 µM (PDE2) | inhibition at 10 µM (PDE5) | inhibition at 1 µM (TNFα; 24 h, read-out: inhibition of TNFα production) | IL1β, IL6 and IL8 secretion levels (IL1β, IL6 and IL8; compound at 1 μM) | IC50 (PDE4; Table 2, formula (XXII), 1 μM cyclic AMP) | IC50 (TNFα; read-out: anti-TNFα activity IC50) | inhibition of the secretion of IL1β (IL1β, IL6 and IL8; in words) |
| --- | --- | --- | --- | --- | --- | --- | --- | --- | --- | --- |
| CCOc1cc2c(cc1OC)C(c1ccccc1)=NCC(=O)N2C [IIda, 8-ethoxy-7-methoxy-1-methyl-5-phenyl-1,3-dihydro-2H-1,4-benzodiazepin-2-one] | 0.55 µM and 0.43 µM | 0.5 µM | 26% | 7% | 14% | 100% | not at all altered |  |  |  |
| CCOc1cc2c(cc1OCC)C(c1ccccc1)=NCC(=O)N2 [XXIIag, 7,8-diethoxy-5-phenyl-1,3-dihydro-2H-1,4-benzodiazepin-2-one] |  | 0.95 µM | 46% | 17% | 35% |  |  | 0.95 µM | 0.1 to 1 µM | capable of inhibiting the secretion |

— US7250410B2, “Cyclic nucleotide phosphodiesterase inhibitors, preparation and uses thereof” (Via Pharmaceuticals, Inc., priority 2001, dated 2007)
